Experimental data taken from ChEMBL document CHEMBL3885881, “DrugMatrix”.

Organism: Rattus norvegicus
Assay: DrugMatrix - Regimen: Daily Repeat
Type: toxicity, organism-based, Sprague-Dawley
Set-up: regimen Daily Repeat, gender Male, age 6-8 weeks
Conditions: in vivo, po, route oral GAVAGE, […]; for ABSOLUTE BASOPHIL / ABSOLUTE EOSINOPHIL / ABSOLUTE LYMPHOCYTE / ABSOLUTE MONOCYTE / ABSOLUTE SEGMENTED NEUTROPHIL / BASOPHIL / EOSINOPHIL / ERYTHROCYTE COUNT / HEMATOCRIT / HEMOGLOBIN / LEUKOCYTE COUNT / LYMPHOCYTE / MEAN CORPUSCULAR HEMOGLOBIN / MEAN CORPUSCULAR HEMOGLOBIN CONCENTRATION / MEAN CORPUSCULAR VOLUME / MONOCYTE / NEUTROPHIL / NUCLEATED RED BLOOD CELLS / PLATELET COUNT: tissue Blood; for ALANINE AMINOTRANSFERASE / ALKALINE PHOSPHATASE / ASPARTATE AMINOTRANSFERASE / BLOOD UREA NITROGEN / CARBON DIOXIDE / CHLORIDE / CHOLESTEROL / CREATINE PHOSPHOKINASE / CREATININE / GLUCOSE / LACTATE DEHYDROGENASE / LIPASE / PHOSPHORUS / POTASSIUM / SODIUM / TOTAL BILIRUBIN / TOTAL PROTEIN / URIC ACID: tissue Plasma
[1] = 20.4 mg/kg, 72 h, dose level High, time 3 day
[2] = 20.4 mg/kg, 120 h, dose level High, time 5 day
[3] = 72 h, dose 2.7 mg/Kg, dose level Low, time 3 day
[4] = 120 h, dose 2.7 mg/Kg, dose level Low, time 5 day

CC(C(=O)O)c1cccc(C(=O)c2ccccc2)c1 (stereo not drawn) [KETOPROFEN]
ABSOLUTE BASOPHIL [1]: 0 CELLS/uL | ABSOLUTE EOSINOPHIL [1]: 0 CELLS/uL | ABSOLUTE LYMPHOCYTE [1]: 7267.67 CELLS/uL | ABSOLUTE MONOCYTE [1]: 314.33 CELLS/uL | ABSOLUTE SEGMENTED NEUTROPHIL [1]: 1618 CELLS/uL | BASOPHIL [1]: 0% | EOSINOPHIL [1]: 0% | ERYTHROCYTE COUNT [1]: 4.75 x10E6/uL | HEMATOCRIT [1]: 28.6% | HEMOGLOBIN [1]: 11.67 G/DL | LEUKOCYTE COUNT [1]: 9.2 x10E3/uL | LYMPHOCYTE [1]: 76.67% | MEAN CORPUSCULAR HEMOGLOBIN [1]: 24.67 pg | MEAN CORPUSCULAR HEMOGLOBIN CONCENTRATION [1]: 40.8 G/DL | MEAN CORPUSCULAR VOLUME [1]: 60.43 fL | MONOCYTE [1]: 3.33% | NEUTROPHIL [1]: 20% | NUCLEATED RED BLOOD CELLS [1]: 0.67 /100WBC | PLATELET COUNT [1]: 1067.67 x10E3/uL | ALANINE AMINOTRANSFERASE [1]: 31.67 u/L | ALKALINE PHOSPHATASE [1]: 297.33 u/L | ASPARTATE AMINOTRANSFERASE [1]: 95 u/L | BLOOD UREA NITROGEN [1]: 15.33 mg/dL | CARBON DIOXIDE [1]: 25.67 mmol/L | CHLORIDE [1]: 101.67 MEQ/L | CHOLESTEROL [1]: 70.33 mg/dL | CREATINE PHOSPHOKINASE [1]: 362.33 u/L | CREATININE [1]: 0.15 mg/dL | GLUCOSE [1]: 138.67 mg/dL | LACTATE DEHYDROGENASE [1]: 114 u/L | LIPASE [1]: 9.67 u/L | PHOSPHORUS [1]: 13.07 mg/dL | POTASSIUM [1]: 6.63 MEQ/L | SODIUM [1]: 141.23 MEQ/L | TOTAL BILIRUBIN [1]: 0.1 mg/dL | TOTAL PROTEIN [1]: 4.57 G/DL | URIC ACID [1]: 2.1 mg/dL | ABSOLUTE BASOPHIL [2]: 0 CELLS/uL | ABSOLUTE EOSINOPHIL [2]: 0 CELLS/uL | ABSOLUTE LYMPHOCYTE [2]: 10025.5 CELLS/uL | ABSOLUTE MONOCYTE [2]: 600.5 CELLS/uL | ABSOLUTE SEGMENTED NEUTROPHIL [2]: 1824 CELLS/uL | BASOPHIL [2]: 0% | EOSINOPHIL [2]: 0% | ERYTHROCYTE COUNT [2]: 4.91 x10E6/uL | HEMATOCRIT [2]: 29.7% | HEMOGLOBIN [2]: 12.2 G/DL | LEUKOCYTE COUNT [2]: 12.45 x10E3/uL | LYMPHOCYTE [2]: 76% | MEAN CORPUSCULAR HEMOGLOBIN [2]: 25 pg | MEAN CORPUSCULAR HEMOGLOBIN CONCENTRATION [2]: 41.05 G/DL | MEAN CORPUSCULAR VOLUME [2]: 60.85 fL | MONOCYTE [2]: 4.5% | NEUTROPHIL [2]: 19.5% | NUCLEATED RED BLOOD CELLS [2]: 1 /100WBC | PLATELET COUNT [2]: 1944 x10E3/uL | ALANINE AMINOTRANSFERASE [2]: 58 u/L | ALKALINE PHOSPHATASE [2]: 430 u/L | ASPARTATE AMINOTRANSFERASE [2]: 128 u/L | BLOOD UREA NITROGEN [2]: 17 mg/dL | CARBON DIOXIDE [2]: 21 mmol/L | CHLORIDE [2]: 99.5 MEQ/L | CHOLESTEROL [2]: 61.5 mg/dL | CREATINE PHOSPHOKINASE [2]: 682 u/L | CREATININE [2]: 0.13 mg/dL | GLUCOSE [2]: 127.5 mg/dL | LACTATE DEHYDROGENASE [2]: 391.5 u/L | LIPASE [2]: 20.5 u/L | PHOSPHORUS [2]: 14.15 mg/dL | POTASSIUM [2]: 8.29 MEQ/L | SODIUM [2]: 138.9 MEQ/L | TOTAL BILIRUBIN [2]: 0.15 mg/dL | TOTAL PROTEIN [2]: 5.05 G/DL | URIC ACID [2]: 3.2 mg/dL | ABSOLUTE BASOPHIL [3]: 0 CELLS/uL | ABSOLUTE EOSINOPHIL [3]: 0 CELLS/uL | ABSOLUTE LYMPHOCYTE [3]: 15950 CELLS/uL | ABSOLUTE MONOCYTE [3]: 68.67 CELLS/uL | ABSOLUTE SEGMENTED NEUTROPHIL [3]: 1814.67 CELLS/uL | BASOPHIL [3]: 0% | EOSINOPHIL [3]: 0% | ERYTHROCYTE COUNT [3]: 5.46 x10E6/uL | HEMATOCRIT [3]: 34.7% | HEMOGLOBIN [3]: 13.87 G/DL | LEUKOCYTE COUNT [3]: 17.83 x10E3/uL | LYMPHOCYTE [3]: 89.67% | MEAN CORPUSCULAR HEMOGLOBIN [3]: 25.4 pg | MEAN CORPUSCULAR HEMOGLOBIN CONCENTRATION [3]: 39.97 G/DL | MEAN CORPUSCULAR VOLUME [3]: 63.5 fL | MONOCYTE [3]: 0.33% | NEUTROPHIL [3]: 10% | NUCLEATED RED BLOOD CELLS [3]: 0.67 /100WBC | PLATELET COUNT [3]: 1051 x10E3/uL | ALANINE AMINOTRANSFERASE [3]: 83.33 u/L | ALKALINE PHOSPHATASE [3]: 375.67 u/L | ASPARTATE AMINOTRANSFERASE [3]: 100.33 u/L | BLOOD UREA NITROGEN [3]: 10.33 mg/dL | CARBON DIOXIDE [3]: 28.67 mmol/L | CHLORIDE [3]: 99.67 MEQ/L | CHOLESTEROL [3]: 74 mg/dL | CREATINE PHOSPHOKINASE [3]: 203.67 u/L | CREATININE [3]: 0.12 mg/dL | GLUCOSE [3]: 169 mg/dL | LACTATE DEHYDROGENASE [3]: 131.33 u/L | LIPASE [3]: 12 u/L | PHOSPHORUS [3]: 11.9 mg/dL | POTASSIUM [3]: 6.6 MEQ/L | SODIUM [3]: 141.63 MEQ/L | TOTAL BILIRUBIN [3]: 0.2 mg/dL | TOTAL PROTEIN [3]: 5.5 G/DL | URIC ACID [3]: 1.3 mg/dL | ABSOLUTE BASOPHIL [4]: 0 CELLS/uL | ABSOLUTE EOSINOPHIL [4]: 0 CELLS/uL | ABSOLUTE LYMPHOCYTE [4]: 13468.33 CELLS/uL | ABSOLUTE MONOCYTE [4]: 227.67 CELLS/uL | ABSOLUTE SEGMENTED NEUTROPHIL [4]: 2570.67 CELLS/uL | BASOPHIL [4]: 0% | EOSINOPHIL [4]: 0% | ERYTHROCYTE COUNT [4]: 5.73 x10E6/uL | HEMATOCRIT [4]: 35.13% | HEMOGLOBIN [4]: 14.03 G/DL | LEUKOCYTE COUNT [4]: 16.27 x10E3/uL | LYMPHOCYTE [4]: 83% | MEAN CORPUSCULAR HEMOGLOBIN [4]: 24.5 pg | MEAN CORPUSCULAR HEMOGLOBIN CONCENTRATION [4]: 39.97 G/DL | MEAN CORPUSCULAR VOLUME [4]: 61.33 fL | MONOCYTE [4]: 1.33% | NEUTROPHIL [4]: 15.67% | NUCLEATED RED BLOOD CELLS [4]: 0 /100WBC | PLATELET COUNT [4]: 1235.67 x10E3/uL | ALANINE AMINOTRANSFERASE [4]: 64.67 u/L | ALKALINE PHOSPHATASE [4]: 363.67 u/L | ASPARTATE AMINOTRANSFERASE [4]: 74 u/L | BLOOD UREA NITROGEN [4]: 13.67 mg/dL | CARBON DIOXIDE [4]: 31.67 mmol/L | CHLORIDE [4]: 100.67 MEQ/L | CHOLESTEROL [4]: 64.33 mg/dL | CREATINE PHOSPHOKINASE [4]: 125.67 u/L | CREATININE [4]: 0.17 mg/dL | GLUCOSE [4]: 146.67 mg/dL | LACTATE DEHYDROGENASE [4]: 78 u/L | LIPASE [4]: 11.67 u/L | PHOSPHORUS [4]: 9.8 mg/dL | POTASSIUM [4]: 6.54 MEQ/L | SODIUM [4]: 143.77 MEQ/L | TOTAL BILIRUBIN [4]: 0.13 mg/dL | TOTAL PROTEIN [4]: 5.8 G/DL | URIC ACID [4]: 1.17 mg/dL
